Source: patent publication US20220071933A1, “COMBINATION REMEDY” (SYMRISE AG, priority 2019, published 2022)

What was measured:
[1] = tested on: HGT-1 parietal cell model; experiment: Proton secretion assay (intracellular proton index, IPX) in the HGT-1 parietal cell model; format: cell-based; conditions: for IPX [induced by 50 mM AA] D: D stereoisomer; for IPX [induced by 50 mM AA] D / IPX [induced by 50 mM AA] L: 50 mM amino acid, HGT-1 cells, IPX based on log 2 data of intracellular proton concentration, lower IPX = more protons secreted; for IPX [induced by 50 mM AA] L: L stereoisomer; for acid modulating effect (indicator of satiety): among the amino acids listed in Table 1
Excerpt: The value of intracellular proton secretion (IPX) in the parietal cell model HGT-1 (proton secretion assay), which is a marker for gastric secretion, indicates the extent to which the amino acid is able to inhibit proton secretion and is thus indirectly a measure of saturation. The intracellular proton index (IPX) is based on log 2 data of intracellular proton concentration. The lower the IPX, the more protons are secreted. A low IPX is interpreted as stimulation of gastric acid, which in turn is a saturation signal.

dopamine release = conditions: about 0.03 mg/kg (equivalent to 0.1 μM); cited from earlier work
[2] = sensory; cited from earlier work
neurons = conditions: concentration range 0.01 μM to 10 μM (0.003 mg/kg to 3 mg/kg); cited from earlier work

| Compound | IPX [induced by 50 mM AA] D [1] | IPX [induced by 50 mM AA] L [1] | also measured |
| --- | --- | --- | --- |
| CC(N)C(=O)O (stereo not drawn) [ALA] | −0.35 ± 0.08 | 0.87 ± 0.10 | – |
| N=C(N)NCCC[C@H](N)C(=O)O [ARG, arginine] | −2.37 ± 0.05 | −2.71 ± 0.11 | – |
| N=C(N)NCCC[C@@H](N)C(=O)O [D-arginine] | – | – | acid modulating effect (indicator of satiety) [1]: best acid modulating effect |
| CCC(C)C(N)C(=O)O (stereo not drawn) [ILE] | −0.40 ± 0.04 | 0.58 ± 0.07 | – |
| N=C(N)NCCC[C@H](N)C(=O)O [L-arginine] | – | – | acid modulating effect (indicator of satiety) [1]: best acid modulating effect |
| CC(C)CC(N)C(=O)O (stereo not drawn) [LEU] | 1.10 ± 0.13 | 1.38 ± 0.14 | – |
| CCCCCCCCC(=O)NCc1ccc(O)c(OC)c1 [N-nonanoylvanillylamine, N-((4-hydroxy-3-methoxyphenyl-)methyl-)nonanamide] | – | – | stimulation of dopamine release after acetylcholine stimulation against the respective control (dopamine release): up to 700%; detection threshold [2]: 0.107 mg/kg; irritation threshold [2]: 0.054 mg/kg; stimulation of serotonin release in neurons against the respective control (neurons): up to 270% |
| NC(Cc1ccccc1)C(=O)O (stereo not drawn) [PHE] | 1.58 ± 0.10 | 0.50 ± 0.05 | – |
| O=C(O)C1CCCN1 (stereo not drawn) [PRO] | 0.63 ± 0.09 | 0.44 ± 0.08 | – |
| NC(CO)C(=O)O (stereo not drawn) [SER] | 0.87 ± 0.10 | 1.40 ± 0.12 | – |
| CC(O)C(N)C(=O)O (stereo not drawn) [THR] | 1.57 ± 0.05 | 1.43 ± 0.10 | – |
| NC(Cc1c[nH]c2ccccc12)C(=O)O (stereo not drawn) [TRP] | −0.04 ± 0.04 | −0.66 ± 0.23 | – |
| CC(C)C(N)C(=O)O (stereo not drawn) [VAL] | −0.44 ± 0.17 | 0.99 ± 0.05 | – |
| CCCCC/C=C/C=C/C(=O)NCC(C)C [pellitorin, Pellitorin] | – | – | detection threshold [2]: 0.1 mg/kg |
